The source of these data is US8785424B2, “ngCycloartanone derivatives with anticancer activity” (Pierre Fabre Medicament, priority 2009, dated 2014).

Structures can show the parent of a compound that is named as a salt.

For this assay, the system named is proteasome. As to the kind of experiment: Cellular proteasome inhibition test: accumulation of 4Ub-Luc reporter (luciferase activity) in DLD-1 4Ub-Luc cell line. Format: cell-based, human. To be noted: DLD-1 4Ub-Luc cells, 8 hours, epoxomicin = 100%. The procedure: Biological tests were carried out according to protocols described in the following articles: Ausseil F. et al. J. Biomol Screen. 2007, 12, 106-116 and Vandenberghe I. et al. Biochemical Pharmacology 2008, 76, 453-462.
In order to select novel proteasome inhibitor compounds, it is necessary to indirectly measure the activity of this proteasome within cells. To this end, we constructed a stable cell line, DLD-1 4Ub-Luc, arising from a human colon cancer cell line, which produces a chimeric reporter protein called 4Ub-Luc. This protein is a fusion between a 4-ubiquitin (4Ub) label and luciferase (Luc). This label is capable to direct every proteins that carry it toward the proteasome. The 4Ub-Luc protein is thus efficiently degraded by the proteasome, in contrast to the “wild” non-fused Luc protein. When the DLD-1 4Ub-Luc cell line is treated with a proteasome inhibitor, the fusion protein is much less efficiently degraded and accumulates in the cell. This accumulation is detected by an increase in luciferase activity in the treated extract compared to the extract from untreated cells. The control consists of verifying that the inhibitor has no effect on accumulation of the wild Luc protein produced by the stable DLD-1 RF cell line. For both cell lines and for each product an induction factor is determined for the product tested (or the reference) corresponding to the ratio between the luciferase activities measured in cells treated with this product (or the reference) and cells treated with solvent alone.
The product's activity is then defined by its relative induction factor, i.e., the ratio of its induction factor (IF % luminescence) to that of the reference molecule epoxomicin (IF=100%; see data presented in the table below).
Thus, the test established by Pierre-Fabre is a cellular test that has the advantage, compared to a purely enzymatic test, of detecting only products capable of penetrating the cell.
Two cell lines are used for this test: DLD-1 RF and DLD-1 4Ub-Luc. The culture medium used is as follows: • MEM • 5% fetal calf serum • 5 ml of penicillin-streptomycin • 2.5 ml of FUNGIZONE® (Amphotericin B) • 10 ml of […]
Day 1: Inoculate white 96-well culture-treated plates (PerkinElmer White ViewPlate, product no. 6005181) with 100 μl of 1·10^5 c/ml cell suspension per well. Incubate for 24 hours so that the cells adhere. On each plate five columns will be inoculated with DLD-1 4Ub-Luc and five others with DLD-1 RF according to diagram 1 below.
Day 2: Remove the medium by turning the plates upside down on cotton, and then carry out the treatment with the compounds of the invention, with solvent alone or with a reference compound such as epoxomicin. […]
The columns are paired (examples 2 and 8, 3 and 9, 4 and 10 and 5 and 11) and treated with the same compound. Columns 6 and 7 receive the experimental control, namely 0.1% DMSO in culture medium for wells B, C, D, and E of columns 6 and 7, and the positive control (10^−7 M epoxomicin) in wells F and G.
After incubation, turn the plate upside down on cotton to empty the wells, rinse with 50 μl of PBS to remove any trace of the cytotoxin tested and then add 50 μl of 5× passive lysis buffer (Promega, product no. E1941) diluted to ⅕ in water. Shake energetically using a plate shaker for 5 to 10 minutes at room temperature before freezing at −20° C.
Luciferase activity is measured using a Luciferase Assay System 10-Pack kit (Promega, product no. E1501).
On the day luciferase activity is to be measured, defrost the plates and wait until they have returned to room temperature. The optimal temperature for luciferase activity is 20-25° C.
Reconstitute the firefly luciferase substrate by defrosting the buffer and then adding 10 ml of buffer to the bottle containing the freeze-dried substrate. Wait until the solution is at room temperature before beginning the assay. […]

The mark [1] stands for this setting: concentration tested 5 · 10^−6 M.
Where [2] appears, read: concentration tested 5 · 10^−7 M.

Consider `C=C(C(=O)[C@H](OC(C)=O)[C@@H](C)[C@H]1[C@@H](OC(C)=O)C[C@@]2(C)[C@@H]3CC[C@H]4[C@H](C)C(=O)C=C[C@@]45C[C@@]35CC[C@]12C)[C@@H](C)COC(C)=O` [Compound 18, 26-acetyl-neoboutomellerone], for which the “relative induction factor (IF % luminescence) versus epoxomicin” value was 48% under setting [1], 1% under setting [2] and 12% (concentration tested 10^−6 M).

As to `C=C(C(=O)[C@H](OC(C)=O)[C@@H](C)[C@H]1[C@@H](OC(C)=O)C[C@@]2(C)[C@@H]3CC[C@H]4[C@H](C)C(=O)C=C[C@@]45C[C@@]35CC[C@]12C)[C@@H](C)COC` [Compound 19, 26-methoxy-neoboutomellerone], the “relative induction factor (IF % luminescence) versus epoxomicin” value under setting [1] is recorded as 45%, the “relative induction factor (IF % luminescence) versus epoxomicin” value under setting [2] worked out at 1% and the “relative induction factor (IF % luminescence) versus epoxomicin” value (concentration tested 10^−6 M) turned out to be 40%.

For `C=C(C(=O)[C@H](OC(C)=O)[C@@H](C)[C@H]1[C@@H](OC(C)=O)C[C@@]2(C)[C@@H]3CC[C@H]4[C@H](C)C(=O)C=C[C@@]45C[C@@]35CC[C@]12C)[C@@H](C)COC(=O)Nc1ccccc1` [Compound 20, 26-N-phenylcarbamate-neoboutomellerone], the “relative induction factor (IF % luminescence) versus epoxomicin” value under setting [1] is 60%, the “relative induction factor (IF % luminescence) versus epoxomicin” value under setting [2] turned out to be 6% and the “relative induction factor (IF % luminescence) versus epoxomicin” value (concentration tested 10^−6 M) was 42%.

Regarding `C=C(C(=O)[C@H](OC(C)=O)[C@@H](C)[C@H]1[C@@H](OC(C)=O)C[C@@]2(C)[C@@H]3CC[C@H]4[C@H](C)C(=O)C=C[C@@]45C[C@@]35CC[C@]12C)[C@@H](C)COC(=O)N1CCN(C)CC1` [Compound 22, 26-N—(N-methylpiperazine)carbamate-neoboutomellerone hydrochloride], the “relative induction factor (IF % luminescence) versus epoxomicin” value amounted to 4% under setting [1], 8% under setting [2], 1% (concentration tested 10^−5 M) and 68% (concentration tested 10^−6 M).

As to `C=C(C(=O)[C@H](O)[C@@H](C)[C@H]1[C@@H](OC(C)=O)C[C@@]2(C)[C@@H]3CC[C@H]4[C@H](C)C(=O)C=C[C@@]45C[C@@]35CC[C@]12C)[C@@H](C)COC(=O)N1CCN(C)CC1` [Compound 23, 26-N—(N-methylpiperazine)carbamate-22-deacetyl-neoboutomellerone], the “relative induction factor (IF % luminescence) versus epoxomicin” value is 7% under setting [1], 15% under setting [2], 2% (concentration tested 10^−5 M) and 69% (concentration tested 10^−6 M).

For `C=C(C(=O)[C@H](O)[C@@H](C)[C@H]1[C@@H](OC(C)=O)C[C@@]2(C)[C@@H]3CC[C@H]4[C@H](C)C(=O)C=C[C@@]45C[C@@]35CC[C@]12C)[C@@H](C)COC(=O)N1CCN(C)CC1` [Compound 24, 26-N—(N-methylpiperazine)carbamate-22-deacetyl-neoboutomellerone hydrochloride], the “relative induction factor (IF % luminescence) versus epoxomicin” value by setting is: (concentration tested 5 · 10^−6 M, hydrochloride) 5%; (concentration tested 5 · 10^−7 M, hydrochloride) 12%; (concentration tested 10^−5 M, hydrochloride) 1%; (concentration tested 10^−6 M, hydrochloride) 70%.

Take `C=C(C(=O)[C@H](OC(C)=O)[C@@H](C)[C@H]1[C@@H](OC(C)=O)C[C@@]2(C)[C@@H]3CC[C@H]4[C@H](C)C(=O)C=C[C@@]45C[C@@]35CC[C@]12C)[C@@H](C)COC(=O)Nc1ccc(N(C)C)cc1` [Compound 25, 26-N-(4-N,N-dimethylaniline)carbamate-neoboutomellerone]: the “relative induction factor (IF % luminescence) versus epoxomicin” value is, setting by setting: under setting [1], 51%; under setting [2], 19%; (concentration tested 10^−5 M) 60%; (concentration tested 10^−6 M) 49%.

In the case of `C=C(C(=O)[C@H](O)[C@@H](C)[C@H]1[C@@H](OC(C)=O)C[C@@]2(C)[C@@H]3CC[C@H]4[C@H](C)C(=O)C=C[C@@]45C[C@@]35CC[C@]12C)[C@@H](C)COC(=O)Nc1ccc(N(C)C)cc1` [Compound 26, 26-N-(4-N,N-dimethylaniline)carbamate-22-deacetyl-neoboutomellerone], the “relative induction factor (IF % luminescence) versus epoxomicin” value runs as follows: under setting [1], 54%; under setting [2], 11%; (concentration tested 10^−5 M) 37%; (concentration tested 10^−6 M) 53%.

On to `C=C(C(=O)[C@H](OC(C)=O)[C@@H](C)[C@H]1[C@@H](OC(C)=O)C[C@@]2(C)[C@@H]3CC[C@H]4[C@H](C)/C(=N/O)C=C[C@@]45C[C@@]35CC[C@]12C)[C@@H](C)CO` [Compound 27, 3-anti-oxime-neoboutomellerone], for which the “relative induction factor (IF % luminescence) versus epoxomicin” value under setting [1] worked out at 103%, the “relative induction factor (IF % luminescence) versus epoxomicin” value under setting [2] worked out at 1% and the “relative induction factor (IF % luminescence) versus epoxomicin” value (concentration tested 10^−6 M) was 1%.

With `C=C(C(=O)[C@H](OC(C)=O)[C@@H](C)[C@H]1[C@@H](OC(C)=O)C[C@@]2(C)[C@@H]3CC[C@H]4[C@H](C)/C(=N/NC(N)=O)C=C[C@@]45C[C@@]35CC[C@]12C)[C@@H](C)CO` [Compound 35, 3-semicarbazone-neoboutomellerone], the “relative induction factor (IF % luminescence) versus epoxomicin” value by setting is: under setting [1], 99%; (concentration tested 10^−5 M) 30%; (concentration tested 10^−6 M) 1%.

Regarding `C=C(C(=O)[C@H](OC(C)=O)[C@@H](C)[C@H]1[C@@H](OC(C)=O)C[C@@]2(C)[C@@H]3CC[C@H]4[C@H](C)/C(=N/OCc5ccccc5)C=C[C@@]45C[C@@]35CC[C@]12C)[C@@H](C)CO` [Compound 36, 3-anti-O-benzyloxime-neoboutomellerone], the “relative induction factor (IF % luminescence) versus epoxomicin” value is, setting by setting: under setting [1], 12%; (concentration tested 10^−5 M) 6%; (concentration tested 10^−6 M) 1%.

On to `CC(=O)O[C@H]1C[C@@]2(C)C3CCC4[C@H](C)C(=O)C=C[C@@]45C[C@@]35CC[C@]2(C)[C@H]1[C@H](C)[C@@H](OC(C)=O)C1=C(CN=[N+]=[N-])C(C)CO1` (some centres unmarked) [Compound 47, Azido-methyl-dihydro-furan-neoboutomellerone Derivative], for which the “relative induction factor (IF % luminescence) versus epoxomicin” value is recorded as 78% under setting [1], 36% (concentration tested 10^−5 M) and 7% (concentration tested 10^−6 M).

`C=C(C(=O)[C@H](OC(C)=O)[C@@H](C)[C@H]1[C@@H](OC(C)=O)C[C@@]2(C)C3CCC4[C@H](C)C(=O)C=C[C@@]45C[C@@]35CC[C@]12C)[C@@H](C)COC(=O)CCl` (some centres unmarked) [Compound 49, 26-chloro-acetate-neoboutomellerone Derivative]: the “relative induction factor (IF % luminescence) versus epoxomicin” value turned out to be 44% under setting [1], 15% (concentration tested 10^−5 M) and 19% (concentration tested 10^−6 M).
